Measurements reported in ChEMBL document CHEMBL4507285, “Data for DCP probe MRL-SYKi” (2021).

Tests used:
[1] = biological target: D(1B) dopamine receptor (Homo sapiens) (UniProt P21918); settings: Compound concentration 10.0 uM
[2] = biological target: Serine/threonine-protein kinase Nek4 (Homo sapiens) (UniProt P51957); settings: Compound concentration 100.0 nM
[3] = biological target: Phosphorylase b kinase regulatory subunit alpha, liver isoform (Homo sapiens) (UniProt P46019); settings: Compound concentration 100.0 nM
[4] = biological target: Serine/threonine-protein kinase pim-1 (Homo sapiens) (UniProt P11309); settings: Compound concentration 100.0 nM
[5] = biological target: Bone morphogenetic protein receptor type-1B (Homo sapiens) (UniProt O00238); settings: Compound concentration 100.0 nM
[6] = biological target: Ribosomal protein S6 kinase alpha-3 (Homo sapiens) (UniProt P51812); settings: Compound concentration 100.0 nM
Ribosomal protein S6 kinase alpha-3 (Homo sapiens), sequence (P51812 whole entry): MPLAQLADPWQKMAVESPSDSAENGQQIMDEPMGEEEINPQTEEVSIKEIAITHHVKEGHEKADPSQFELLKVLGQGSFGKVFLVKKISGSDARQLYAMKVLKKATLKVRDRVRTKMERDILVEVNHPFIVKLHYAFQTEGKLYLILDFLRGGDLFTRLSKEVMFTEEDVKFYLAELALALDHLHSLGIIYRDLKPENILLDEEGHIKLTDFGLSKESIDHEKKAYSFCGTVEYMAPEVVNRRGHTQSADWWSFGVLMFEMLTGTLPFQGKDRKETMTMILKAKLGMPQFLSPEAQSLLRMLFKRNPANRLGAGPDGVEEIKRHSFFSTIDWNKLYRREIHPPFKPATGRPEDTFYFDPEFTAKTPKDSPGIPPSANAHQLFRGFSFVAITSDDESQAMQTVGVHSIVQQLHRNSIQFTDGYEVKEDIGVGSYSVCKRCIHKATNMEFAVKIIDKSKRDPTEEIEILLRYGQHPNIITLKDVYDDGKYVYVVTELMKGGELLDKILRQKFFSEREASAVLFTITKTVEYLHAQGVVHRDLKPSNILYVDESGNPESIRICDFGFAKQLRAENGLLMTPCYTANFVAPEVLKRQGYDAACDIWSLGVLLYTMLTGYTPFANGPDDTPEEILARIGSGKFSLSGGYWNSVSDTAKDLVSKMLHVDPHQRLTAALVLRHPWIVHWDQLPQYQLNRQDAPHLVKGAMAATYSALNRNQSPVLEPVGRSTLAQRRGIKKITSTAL

[7] = biological target: Activin receptor type-2A (Homo sapiens) (UniProt P27037); settings: Compound concentration 100.0 nM
Activin receptor type-2A (Homo sapiens), sequence (P27037 whole entry): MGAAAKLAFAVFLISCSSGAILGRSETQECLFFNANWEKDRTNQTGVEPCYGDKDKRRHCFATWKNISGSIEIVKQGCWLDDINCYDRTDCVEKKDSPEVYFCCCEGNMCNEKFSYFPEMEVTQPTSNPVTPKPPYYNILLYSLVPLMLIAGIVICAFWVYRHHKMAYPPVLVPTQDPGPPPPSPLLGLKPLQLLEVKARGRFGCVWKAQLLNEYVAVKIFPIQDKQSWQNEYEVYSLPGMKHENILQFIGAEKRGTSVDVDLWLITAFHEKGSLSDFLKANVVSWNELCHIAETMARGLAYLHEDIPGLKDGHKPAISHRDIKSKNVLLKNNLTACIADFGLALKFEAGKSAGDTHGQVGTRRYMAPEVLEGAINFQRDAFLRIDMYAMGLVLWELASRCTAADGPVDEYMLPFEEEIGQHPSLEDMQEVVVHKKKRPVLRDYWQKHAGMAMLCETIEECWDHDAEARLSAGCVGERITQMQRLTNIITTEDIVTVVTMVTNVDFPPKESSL

[8] = biological target: Tyrosine-protein kinase HCK (Homo sapiens) (UniProt P08631); settings: Compound concentration 100.0 nM
[9] = biological target: Phosphatidylinositol 3-kinase C2 domain-containing subunit gamma (Homo sapiens) (UniProt O75747); settings: Compound concentration 100.0 nM
[10] = biological target: Protein kinase C iota type (Homo sapiens) (UniProt P41743); settings: Compound concentration 100.0 nM
[11] = biological target: Muscarinic acetylcholine receptor M3 (Homo sapiens) (UniProt P20309); settings: Compound concentration 10.0 uM
[12] = biological target: Tyrosine-protein kinase JAK1 (Homo sapiens) (UniProt P23458); settings: Compound concentration 100.0 nM
[13] = biological target: Ephrin type-B receptor 1 (Homo sapiens) (UniProt P54762); settings: Compound concentration 100.0 nM
[14] = biological target: 5-hydroxytryptamine receptor 1B (Homo sapiens) (UniProt P28222); settings: Compound concentration 10.0 uM
5-hydroxytryptamine receptor 1B (Homo sapiens), sequence (P28222 whole entry): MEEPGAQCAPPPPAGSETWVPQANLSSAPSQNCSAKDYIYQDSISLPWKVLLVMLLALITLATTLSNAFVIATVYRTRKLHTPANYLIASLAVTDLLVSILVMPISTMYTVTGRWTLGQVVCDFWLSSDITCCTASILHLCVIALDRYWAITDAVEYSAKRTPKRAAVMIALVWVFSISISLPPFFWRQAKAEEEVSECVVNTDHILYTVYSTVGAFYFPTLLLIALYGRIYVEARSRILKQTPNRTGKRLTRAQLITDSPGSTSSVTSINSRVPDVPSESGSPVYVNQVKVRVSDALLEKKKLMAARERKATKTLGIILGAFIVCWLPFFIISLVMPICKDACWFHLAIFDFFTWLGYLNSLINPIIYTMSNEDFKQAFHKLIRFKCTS

[15] = biological target: Ephrin type-B receptor 2 (Homo sapiens) (UniProt P29323); settings: Compound concentration 100.0 nM
[16] = biological target: Receptor-interacting serine/threonine-protein kinase 1 (Homo sapiens) (UniProt Q13546); settings: Compound concentration 100.0 nM
[17] = biological target: Ribosomal protein S6 kinase alpha-3 (Homo sapiens) (UniProt P51812); settings: Compound concentration 100.0 nM; remark: listed apart in the source
[18] = biological target: Beta-adrenergic receptor kinase 1 (Homo sapiens) (UniProt P25098); settings: Compound concentration 100.0 nM
[19] = biological target: Activin receptor type-2B (Homo sapiens) (UniProt Q13705); settings: Compound concentration 100.0 nM
[20] = biological target: BMP-2-inducible protein kinase (Homo sapiens) (UniProt Q9NSY1); settings: Compound concentration 100.0 nM
[21] = biological target: Serine/threonine-protein kinase BRSK1 (Homo sapiens) (UniProt Q8TDC3); settings: Compound concentration 100.0 nM
[22] = biological target: Platelet-derived growth factor receptor beta (Homo sapiens) (UniProt P09619); settings: Compound concentration 100.0 nM
[23] = biological target: Myosin light chain kinase 2, skeletal/cardiac muscle (Homo sapiens) (UniProt Q9H1R3); settings: Compound concentration 100.0 nM
[24] = biological target: Serine/threonine-protein kinase PAK 6 (Homo sapiens) (UniProt Q9NQU5); settings: Compound concentration 100.0 nM
[25] = tested on: Tyrosine-protein kinase ABL1 (Homo sapiens), P00519 [E255K]; settings: Compound concentration 100.0 nM
[26] = biological target: Interferon-induced, double-stranded RNA-activated protein kinase (Homo sapiens) (UniProt P19525); settings: Compound concentration 100.0 nM
[27] = biological target: Peripheral plasma membrane protein CASK (Homo sapiens) (UniProt O14936); settings: Compound concentration 100.0 nM
[28] = biological target: Phosphatidylinositol 4,5-bisphosphate 3-kinase catalytic subunit gamma isoform (Homo sapiens) (UniProt P48736); settings: Compound concentration 100.0 nM
[29] = biological target: Tyrosine-protein kinase ABL1 (Homo sapiens) (UniProt P00519); settings: Compound concentration 100.0 nM
[30] = biological target: 5-hydroxytryptamine receptor 2C (Homo sapiens) (UniProt P28335); settings: Compound concentration 10.0 uM
[31] = tested on: Mast/stem cell growth factor receptor Kit (Homo sapiens), P10721 [L576P]; settings: Compound concentration 100.0 nM
[32] = biological target: Serine/threonine-protein kinase Nek5 (Homo sapiens) (UniProt Q6P3R8); settings: Compound concentration 100.0 nM
[33] = biological target: Receptor tyrosine-protein kinase erbB-4 (Homo sapiens) (UniProt Q15303); settings: Compound concentration 100.0 nM
Receptor tyrosine-protein kinase erbB-4 (Homo sapiens), sequence (Q15303 whole entry, the tested form may be a part): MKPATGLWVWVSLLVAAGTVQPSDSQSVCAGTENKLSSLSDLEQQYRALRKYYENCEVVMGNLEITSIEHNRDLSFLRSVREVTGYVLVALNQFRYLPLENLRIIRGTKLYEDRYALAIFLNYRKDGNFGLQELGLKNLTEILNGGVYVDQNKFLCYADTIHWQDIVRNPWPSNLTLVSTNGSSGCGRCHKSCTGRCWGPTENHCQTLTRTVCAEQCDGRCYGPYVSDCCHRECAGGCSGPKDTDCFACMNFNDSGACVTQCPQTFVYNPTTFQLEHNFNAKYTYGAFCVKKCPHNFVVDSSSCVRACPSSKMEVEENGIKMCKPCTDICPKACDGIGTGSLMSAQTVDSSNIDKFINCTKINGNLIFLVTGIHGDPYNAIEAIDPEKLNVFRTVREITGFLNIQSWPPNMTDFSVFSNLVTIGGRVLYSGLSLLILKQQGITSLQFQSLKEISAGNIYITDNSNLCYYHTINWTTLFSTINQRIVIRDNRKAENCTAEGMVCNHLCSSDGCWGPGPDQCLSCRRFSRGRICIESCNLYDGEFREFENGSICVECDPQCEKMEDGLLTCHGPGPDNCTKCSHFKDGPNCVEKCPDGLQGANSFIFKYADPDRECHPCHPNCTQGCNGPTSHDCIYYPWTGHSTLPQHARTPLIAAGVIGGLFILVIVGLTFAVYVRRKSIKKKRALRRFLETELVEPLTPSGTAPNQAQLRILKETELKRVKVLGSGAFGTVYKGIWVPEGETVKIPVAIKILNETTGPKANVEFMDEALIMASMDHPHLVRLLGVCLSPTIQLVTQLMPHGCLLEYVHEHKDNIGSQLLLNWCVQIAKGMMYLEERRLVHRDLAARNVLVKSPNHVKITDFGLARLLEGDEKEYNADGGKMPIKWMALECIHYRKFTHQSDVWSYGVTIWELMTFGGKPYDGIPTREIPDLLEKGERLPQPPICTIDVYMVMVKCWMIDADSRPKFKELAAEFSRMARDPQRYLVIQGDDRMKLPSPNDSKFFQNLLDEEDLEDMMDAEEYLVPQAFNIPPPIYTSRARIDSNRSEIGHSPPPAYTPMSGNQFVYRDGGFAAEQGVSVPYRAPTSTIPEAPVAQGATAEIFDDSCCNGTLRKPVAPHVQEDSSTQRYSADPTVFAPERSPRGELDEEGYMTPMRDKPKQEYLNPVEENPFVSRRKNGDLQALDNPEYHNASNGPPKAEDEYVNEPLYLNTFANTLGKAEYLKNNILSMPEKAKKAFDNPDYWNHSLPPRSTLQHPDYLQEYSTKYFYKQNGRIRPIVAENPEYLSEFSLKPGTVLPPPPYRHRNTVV

[34] = biological target: Phosphatidylinositol 4-phosphate 3-kinase C2 domain-containing subunit beta (Homo sapiens) (UniProt O00750); settings: Compound concentration 100.0 nM
[35] = biological target: Serine/threonine-protein kinase 33 (Homo sapiens) (UniProt Q9BYT3); settings: Compound concentration 100.0 nM
[36] = biological target: Serine/threonine-protein kinase 3 (Homo sapiens) (UniProt Q13188); settings: Compound concentration 100.0 nM
[37] = biological target: Cyclin-dependent kinase 9 (Homo sapiens) (UniProt P50750); settings: Compound concentration 100.0 nM
Cyclin-dependent kinase 9 (Homo sapiens), sequence (P50750 whole entry): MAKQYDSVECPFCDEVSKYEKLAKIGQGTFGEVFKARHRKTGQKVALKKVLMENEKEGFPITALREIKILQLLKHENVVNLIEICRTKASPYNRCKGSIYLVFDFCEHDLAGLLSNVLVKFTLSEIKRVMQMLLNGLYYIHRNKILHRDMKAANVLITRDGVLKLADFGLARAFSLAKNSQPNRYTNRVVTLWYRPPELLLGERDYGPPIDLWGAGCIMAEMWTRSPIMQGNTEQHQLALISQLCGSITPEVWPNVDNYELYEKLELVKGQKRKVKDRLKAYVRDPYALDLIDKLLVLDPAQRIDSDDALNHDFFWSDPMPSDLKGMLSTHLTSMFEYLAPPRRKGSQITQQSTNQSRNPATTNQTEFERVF

[38] = biological target: Tyrosine-protein kinase Lck (Homo sapiens) (UniProt P06239); settings: Compound concentration 100.0 nM
Tyrosine-protein kinase Lck (Homo sapiens), sequence (P06239 2-509 limits assumed): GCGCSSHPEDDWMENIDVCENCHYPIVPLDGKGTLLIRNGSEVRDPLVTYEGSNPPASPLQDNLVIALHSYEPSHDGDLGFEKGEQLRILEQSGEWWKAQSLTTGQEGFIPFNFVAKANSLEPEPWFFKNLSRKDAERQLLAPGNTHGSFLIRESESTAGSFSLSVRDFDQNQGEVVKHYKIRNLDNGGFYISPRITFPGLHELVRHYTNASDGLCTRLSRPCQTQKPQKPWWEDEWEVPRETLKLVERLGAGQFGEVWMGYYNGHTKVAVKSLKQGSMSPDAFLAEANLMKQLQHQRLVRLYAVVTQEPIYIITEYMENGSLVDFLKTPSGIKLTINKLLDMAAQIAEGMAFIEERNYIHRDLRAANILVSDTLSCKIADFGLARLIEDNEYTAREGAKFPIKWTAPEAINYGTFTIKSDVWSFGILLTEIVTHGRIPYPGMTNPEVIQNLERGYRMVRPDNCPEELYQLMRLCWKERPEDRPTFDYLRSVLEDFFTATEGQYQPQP

[39] = biological target: Ephrin type-B receptor 6 (Homo sapiens) (UniProt O15197); settings: Compound concentration 100.0 nM
[40] = biological target: Dual specificity tyrosine-phosphorylation-regulated kinase 1A (Homo sapiens) (UniProt Q13627); settings: Compound concentration 100.0 nM
[41] = biological target: Inhibitor of nuclear factor kappa-B kinase subunit epsilon (Homo sapiens) (UniProt Q14164); settings: Compound concentration 100.0 nM
Inhibitor of nuclear factor kappa-B kinase subunit epsilon (Homo sapiens), sequence (Q14164 whole entry): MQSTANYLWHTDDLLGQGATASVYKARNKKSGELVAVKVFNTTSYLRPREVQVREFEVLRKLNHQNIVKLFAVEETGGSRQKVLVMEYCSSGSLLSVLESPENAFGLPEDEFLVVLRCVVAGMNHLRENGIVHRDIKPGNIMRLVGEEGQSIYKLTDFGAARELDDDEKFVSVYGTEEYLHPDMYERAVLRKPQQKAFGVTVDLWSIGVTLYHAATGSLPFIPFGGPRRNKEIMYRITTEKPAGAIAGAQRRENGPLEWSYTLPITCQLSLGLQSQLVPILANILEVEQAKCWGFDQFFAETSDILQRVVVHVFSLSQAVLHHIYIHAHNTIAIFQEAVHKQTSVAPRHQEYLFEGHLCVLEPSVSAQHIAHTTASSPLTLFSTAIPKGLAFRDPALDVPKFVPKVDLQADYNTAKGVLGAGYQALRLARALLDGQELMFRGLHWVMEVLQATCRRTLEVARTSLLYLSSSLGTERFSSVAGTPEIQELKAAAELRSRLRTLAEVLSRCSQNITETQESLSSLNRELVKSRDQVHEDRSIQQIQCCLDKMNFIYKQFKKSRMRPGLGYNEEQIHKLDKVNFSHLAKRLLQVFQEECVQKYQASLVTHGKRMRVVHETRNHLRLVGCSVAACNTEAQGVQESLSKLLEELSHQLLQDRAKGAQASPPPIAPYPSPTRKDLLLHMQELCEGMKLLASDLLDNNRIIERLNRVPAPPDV

[42] = biological target: Membrane-associated tyrosine- and threonine-specific cdc2-inhibitory kinase (Homo sapiens) (UniProt Q99640); settings: Compound concentration 100.0 nM
[43] = biological target: Serine/threonine-protein kinase 24 (Homo sapiens) (UniProt Q9Y6E0); settings: Compound concentration 100.0 nM
Serine/threonine-protein kinase 24 (Homo sapiens), sequence (Q9Y6E0 whole entry, looked up): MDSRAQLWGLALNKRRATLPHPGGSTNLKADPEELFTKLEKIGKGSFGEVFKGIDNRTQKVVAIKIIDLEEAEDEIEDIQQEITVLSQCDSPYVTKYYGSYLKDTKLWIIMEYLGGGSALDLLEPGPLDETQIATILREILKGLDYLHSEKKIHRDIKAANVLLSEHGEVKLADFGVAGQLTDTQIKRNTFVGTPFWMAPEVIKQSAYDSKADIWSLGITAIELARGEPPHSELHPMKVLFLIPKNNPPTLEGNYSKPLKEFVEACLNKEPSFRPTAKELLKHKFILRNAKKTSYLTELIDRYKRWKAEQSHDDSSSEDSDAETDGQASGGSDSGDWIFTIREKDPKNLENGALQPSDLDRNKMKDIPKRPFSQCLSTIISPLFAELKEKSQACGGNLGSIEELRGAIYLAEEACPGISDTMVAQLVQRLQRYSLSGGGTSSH

[44] = biological target: BDNF/NT-3 growth factors receptor (Homo sapiens) (UniProt Q16620); settings: Compound concentration 100.0 nM
[45] = biological target: Tyrosine-protein kinase JAK2 (Homo sapiens, UniProt O60674); settings: Compound concentration 100.0 nM

**Q.** What does the source list for Cc1ccc(-c2cnc([C@@]3(O)CC[C@H](C(=O)O)C(C)(C)C3)s2)cc1Nc1cccc(C(F)(F)F)n1 [MRL-SYKi-NC]?
**A.** inhibition [1]: 18.6%; residual activity [2]: 84%; residual activity [3]: 100%; residual activity [4]: 100%; residual activity [5]: 92.3%; residual activity [6]: 93%; residual activity [7]: 96.9%; residual activity [8]: 71.9%; residual activity [9]: 59.6%; residual activity [10]: 96.2%; inhibition [11]: 6.69%; residual activity [12]: 100%; residual activity [13]: 98.7%; inhibition [14]: 20.2%; residual activity [15]: 100%; residual activity [16]: 95.9%; residual activity [17]: 73.8%; residual activity [18]: 100%; residual activity [19]: 100%; residual activity [20]: 100%; residual activity [21]: 100%; residual activity [22]: 100%; residual activity [23]: 90.9%; residual activity [24]: 70.5%; residual activity [25]: 80.8%; residual activity [26]: 75.8%; residual activity [27]: 100%; residual activity [28]: 85.4%; residual activity [29]: 78.4%; inhibition [30]: 4.21%; residual activity [31]: 100%; residual activity [32]: 100%; residual activity [33]: 81.2%; residual activity [34]: 69.2%; residual activity [35]: 100%; residual activity [36]: 98.1%; residual activity [37]: 100%; residual activity [38]: 100%; residual activity [39]: 78.6%; residual activity [40]: 81.4%; residual activity [41]: 73.8%; residual activity [42]: 93.1%; residual activity [43]: 100%; residual activity [44]: 67.2%; residual activity [45]: 96.6%

**Q.** How did the inhibition [1] turn out when Cc1cc(Nc2nccc(C)n2)cc(-c2cnc([C@@]3(O)CC[C@H](C(=O)O)C(C)(C)C3)s2)c1 [MRL-SYKi] was run?
**A.** 8.85%

**Q.** And the residual activity [2]?
**A.** 96.6%

**Q.** What about the residual activity [3] of the same compound?
**A.** 100%

**Q.** What about the residual activity [4] of the same compound?
**A.** 91.7%

**Q.** And the residual activity [5]?
**A.** 100%

**Q.** And the residual activity [6]?
**A.** 87.6%

**Q.** What about the residual activity [7] of the same compound?
**A.** 85.6%

**Q.** What about the residual activity [8] of the same compound?
**A.** 83.3%

**Q.** What about the residual activity [9] of the same compound?
**A.** 95.9%

**Q.** What about the residual activity [10] of the same compound?
**A.** 77.3%

**Q.** What about the inhibition [11] of the same compound?
**A.** 17.4%

**Q.** What about the residual activity [12] of the same compound?
**A.** 100%

**Q.** And the residual activity [13]?
**A.** 100%

**Q.** And the inhibition [14]?
**A.** 11.6%

**Q.** What about the residual activity [15] of the same compound?
**A.** 100%

**Q.** And the residual activity [16]?
**A.** 87.1%

**Q.** What about the residual activity [17] of the same compound?
**A.** 83.4%

**Q.** And the residual activity [18]?
**A.** 97.5%

**Q.** What about the residual activity [19] of the same compound?
**A.** 82.8%

**Q.** And the residual activity [20]?
**A.** 100%

**Q.** What about the residual activity [21] of the same compound?
**A.** 100%

**Q.** What about the residual activity [22] of the same compound?
**A.** 100%

**Q.** And the residual activity [23]?
**A.** 100%

**Q.** And the residual activity [24]?
**A.** 100%

**Q.** What about the residual activity [25] of the same compound?
**A.** 55.1%

**Q.** What about the residual activity [26] of the same compound?
**A.** 77.4%

**Q.** And the residual activity [27]?
**A.** 64.9%

**Q.** And the residual activity [28]?
**A.** 100%

**Q.** What about the residual activity [29] of the same compound?
**A.** 45.3%

**Q.** And the inhibition [30]?
**A.** 3.02%

**Q.** What about the residual activity [31] of the same compound?
**A.** 85.1%

**Q.** And the residual activity [32]?
**A.** 74.2%

**Q.** What about the residual activity [33] of the same compound?
**A.** 81.9%

**Q.** What about the residual activity [34] of the same compound?
**A.** 100%

**Q.** And the residual activity [35]?
**A.** 64.4%

**Q.** What about the residual activity [36] of the same compound?
**A.** 100%

**Q.** What about the residual activity [37] of the same compound?
**A.** 100%

**Q.** What about the residual activity [38] of the same compound?
**A.** 73%

**Q.** What about the residual activity [39] of the same compound?
**A.** 34.7%

**Q.** What about the residual activity [40] of the same compound?
**A.** 100%

**Q.** What about the residual activity [41] of the same compound?
**A.** 100%

**Q.** What about the residual activity [42] of the same compound?
**A.** 100%

**Q.** And the residual activity [43]?
**A.** 83.5%

**Q.** What about the residual activity [44] of the same compound?
**A.** 60.3%

**Q.** What about the residual activity [45] of the same compound?
**A.** 45.5%
